From US8524691B2, “Phosphonated rifamycins and uses thereof for the prevention and treatment of bone and joint infections” (The Medicines Company, priority 2008, dated 2013)
≈ marks a conversion by molar mass, not a printed value. Like-named read-outs stand apart in the source and are kept apart here.

Legend:
S. aureus ATCC 13709 [1] = assay: microbe, parasite or virus in culture; format: cell-based; details: for Minimum inhibitory concentration, S. aureus ATCC 13709: CAMHB, 37° C., 18 h; for Antibacterial activity (in words, from Table 1): S. aureus MIC
Method in brief: (§1)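 Two-fold serial dilutions in DMSO were tested in cation-adjusted Mueller Hinton broth, following NCCLS M26-A, at 5×10^5 c.f.u./mL with 1.25% DMSO final, in duplicate. Plates were incubated at 37 °C for 18 h. MIC was the lowest concentration inhibiting visible growth.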

[2] = tested on: Novobiocin resistant mutant strain of S. aureus ATCC 13709; assay: Prophylactic efficacy in rat model of S. aureus bone infection; format: in vivo; details: for Measured bacterial titer, test compound: 20 mg/kg parent drug equivalent, tibia 24 h postinfection; for Prophylactic activity in rat bone infection model (in words): 20 mg/kg, 1 day or 5 days prior to infection
Method in brief: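 Female CD rats (n=5/group) received an intra-tibial injection of sodium morrhuate followed by about 2×10^7 CFU of a novobiocin-resistant S. aureus ATCC 13709 mutant. Prodrugs in saline were given as a single IV bolus at set times before infection, and moxifloxacin 10 mg/kg IV at 1 h post-infection. Tibial bacterial load (Log CFU/g bone; detection limit 2 Log) was measured at 24 h and compared by Dunnett's test.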

[3] = format: in vitro ADME; details: for % Conversion (prodrug converted to parent drug after binding to bone): 24 h incubation, 37° C.
Procedure: Amounts of parent drug “regenerated” from the phosphonated prodrug were measured as follows. Washed bone powder-bound prodrugs from the above experiment were resuspended in 400 μL PBS+2% DMSO or in 400 μL 50% (v/v in PBS+2% DMSO) human or rat serum. The suspension was incubated overnight at 37° C., centrifuged at 13,000 rpm for 2 min and the supernatant was recovered. The amount of regenerated parent drug in the supernatant was determined by measurements using the microbiological assay that was previously described for the prodrugs themselves. The amount of prodrug was deduced from standard curves of known amounts of parent drug that were used as reference for each experiment. The amount of regenerated drug assessed by this bioassay was corroborated by MIC determination. The percentage of drug regenerated in PBS or serum after the overnight incubation (Table 2) was deduced from the difference between the amount of bound prodrug and the amount of regenerated drug (not shown).

S. aureus ATCC 29213 = assay: Antibacterial susceptibility (MIC), NCCLS broth microdilution; format: cell-based; details: for Minimum inhibitory concentration, S. aureus ATCC 29213: CAMHB, 37° C., 18 h
Method in brief: as §1

[4] = tested on: S. aureus ATCC 13709^A, Novobiocin and Rifampicin resistant variant; assay: as above; format: cell-based
Method in brief: as §1

S. aureus ATCC 13709 [5] = assay: microbe, parasite or virus in culture; format: cell-based; details: for Serum dependence of antibacterial activity (in words): MIC with versus without serum; for MIC: Staphylococcus aureus, ATCC13709, 18 h
[6] = single intravenous bolus 1 day prior to infection
[7] = single intravenous bolus 5 days prior to infection

| Structure (SMILES) | Minimum inhibitory concentration, S. aureus ATCC 13709 (S. aureus ATCC 13709 [1]) [mg/L] | Antibacterial activity (in words, from Table 1) (S. aureus ATCC 13709 [1]) | Measured bacterial titer, test compound [2, 6] | Measured bacterial titer, test compound [2, 7] | Prophylactic activity in rat bone infection model (in words) [2] | Release of parent rifabutin from bone powder-bound prodrug (in words) [3] | % Conversion (prodrug converted to parent drug after binding to bone) ([3]; 50% Heat Inactivated Rat Serum) [%] | % Conversion (prodrug converted to parent drug after binding to bone) ([3]; 50% Rat Serum) [%] | % Conversion (prodrug converted to parent drug after binding to bone) ([3]; PBS) [%] | Minimum inhibitory concentration, S. aureus ATCC 29213 (S. aureus ATCC 29213) [mg/L] | Minimum inhibitory concentration, S. aureus ATCC 13709^A [4] [mg/L] | Minimum inhibitory concentration, ATCC 13709 + 50% Human Serum (S. aureus ATCC 13709 [5]) [mg/L] | Minimum inhibitory concentration, ATCC 13709 + 50% Mouse Serum (S. aureus ATCC 13709 [5]) [mg/L] | Minimum inhibitory concentration, ATCC 13709 + 50% Rat Serum (S. aureus ATCC 13709 [5]) [mg/L] | Serum dependence of antibacterial activity (in words) (S. aureus ATCC 13709 [5]) | also measured |
| --- | --- | --- | --- | --- | --- | --- | --- | --- | --- | --- | --- | --- | --- | --- | --- | --- |
| CCN(CC)CC.CCN(CC)CC.CO[C@H]1/C=C/O[C@@]2(C)Oc3c(C)c(O)c4c(c3C2=O)C2=NC3(CCN(CC(C)C)CC3)N(C(=O)OCc3ccc(OC(=O)CCCC(P(=O)(O)O)P(=O)(O)O)cc3)C2=C(NC(=O)/C(C)=C\C=C\[C@H](C)[C@H](O)[C@@H](C)[C@@H](O)[C@@H](C)[C@H](OC(C)=O)[C@@H]1C)C4=O [Compound 18] | 0.125 | very low MICs whether in the absence or in the presence of serum | 2.08 ± 0.02 Log CFU/g of bone | 2.91 ± 1.33 Log CFU/g of bone | active at 1 day and display activity similar to rifabutin at 5 days | release significant amounts of the parent rifabutin once bound to bone powder, regardless of the presence of serum | 0.55 ± 0.20 | 0.95 ± 0.40 | 0.66 ± 0.03 | 0.125 | >128 | 0.125 | 0.125 | 0.0156 | – | – |
| CO[C@H]1/C=C/O[C@@]2(C)Oc3c(C)c(O)c4c(c3C2=O)C2=NC3(CCN(CC(C)C)CC3)N(C(=O)OCc3cc(C)c(OC(=O)CCC(P(=O)(O)O)P(=O)(O)O)c(C)c3)C2=C(NC(=O)/C(C)=C\C=C\[C@H](C)[C@H](O)[C@@H](C)[C@@H](O)[C@@H](C)[C@H](OC(C)=O)[C@@H]1C)C4=O.N.N [Compound 19] | 0.25 | very low MICs whether in the absence or in the presence of serum | 2.55 ± 0.69 Log CFU/g of bone | 3.69 ± 1.45 Log CFU/g of bone | active at 1 day and display activity similar to rifabutin at 5 days | release significant amounts of the parent rifabutin once bound to bone powder, regardless of the presence of serum | 0.14 | 0.14 | 0.14 | 0.25 | >128 | 0.125 | 0.0625 | 0.0156 | – | – |
| CCC(=O)OCOC(=O)N[C@@H](Cc1ccc(OCCCC(P(=O)(O)O)P(=O)(O)O)cc1)C(=O)N(C)CC(=O)O[C@@H]1[C@@H](C)[C@@H](O)[C@@H](C)[C@H](OC(C)=O)[C@H](C)[C@@H](OC)/C=C/O[C@@]2(C)Oc3c(C)c(O)c4c(c3C2=O)C2=NC3(CCN(CC(C)C)CC3)NC2=C(NC(=O)/C(C)=C\C=C\[C@@H]1C)C4=O.N.N [Compound 89] | 4 | – | 2.05 ± 0.07 Log CFU/g of bone | 3.45 ± 1.36 Log CFU/g of bone | active at 1 day and display activity similar to rifabutin at 5 days | regeneration is clearly accelerated by the presence of serum | 0.16 ± 0.04 | 0.18 | 0.02 | 4 | >128 | 16 | 0.0625 | 0.0156 | significant increase in antibacterial activity in serum | – |
| CCC(=O)OCOC(=O)N[C@@H](CCCCNC(=O)CCC(P(=O)(O)O)P(=O)(O)O)C(=O)N(C)CC(=O)O[C@@H]1[C@@H](C)[C@@H](O)[C@@H](C)[C@H](OC(C)=O)[C@H](C)[C@@H](OC)/C=C/O[C@@]2(C)Oc3c(C)c(O)c4c(c3C2=O)C2=NC3(CCN(CC(C)C)CC3)NC2=C(NC(=O)/C(C)=C\C=C\[C@@H]1C)C4=O.N.N [Compound 95] | 4 | – | 2.3 ± 0.57 Log CFU/g of bone | 3.75 ± 0.54 Log CFU/g of bone | active at 1 day and display activity similar to rifabutin at 5 days | regeneration is clearly accelerated by the presence of serum | 0.13 | 0.14 ± 0.06 | 0.02 | 4 | >128 | 16 | 0.0625 | 0.0156 | significant increase in antibacterial activity in serum | – |
| CCC(=O)OCOC(=O)N[C@@H](CCC(=O)NC(P(=O)(O)O)P(=O)(O)O)C(=O)N(C)CC(=O)O[C@@H]1[C@@H](C)[C@@H](O)[C@@H](C)[C@H](OC(C)=O)[C@H](C)[C@@H](OC)/C=C/O[C@@]2(C)Oc3c(C)c(O)c4c(c3C2=O)C2=NC3(CCN(CC(C)C)CC3)NC2=C(NC(=O)/C(C)=C\C=C\[C@@H]1C)C4=O [Compound 102] | – | – | 2.89 ± 1.13 Log CFU/g of bone | 5.38 ± 0.83 Log CFU/g of bone | active at 1 day and display activity similar to rifabutin at 5 days | – | – | – | – | – | – | – | – | – | significant increase in antibacterial activity in serum | MIC (S. aureus ATCC 13709 [1]; Staphylococcus aureus, ATCC13709, 18 h, read-out: Minimum inhibitory concentration, S. aureus ATCC 13709): 4 mg/L (≈ 2.96 µM); Release of parent rifabutin from bone powder-bound prodrug (in words) ([3]; PBS versus serum): regeneration is clearly accelerated by the presence of serum; MIC (S. aureus ATCC 29213; Staphylococcus aureus, ATCC29213, 18 h, read-out: Minimum inhibitory concentration, S. aureus ATCC 29213): 2 mg/L (≈ 1.48 µM); MIC ([4]; Staphylococcus aureus, ATCC13709, read-out: Minimum inhibitory concentration, S. aureus ATCC 13709^A): > 128 mg/L; MIC (S. aureus ATCC 13709 [5]; read-out: Minimum inhibitory concentration, ATCC 13709 + 50% Human Serum): 16 mg/L; MIC (S. aureus ATCC 13709 [5]; read-out: Minimum inhibitory concentration, ATCC 13709 + 50% Mouse Serum): 0.0625 mg/L; MIC (S. aureus ATCC 13709 [5]; read-out: Minimum inhibitory concentration, ATCC 13709 + 50% Rat Serum): 0.0156 mg/L |
| CCN(CC)CC.CO[C@H]1/C=C/O[C@@]2(C)Oc3c(C)c(O)c4c(c3C2=O)C2=NC3(CCN(CC(C)C)CC3)NC2=C(NC(=O)/C(C)=C\C=C\[C@H](C)[C@H](OC(=O)CN(C)C(=O)Nc2ccc(CC(P(=O)(O)O)P(=O)(O)O)cc2)[C@@H](C)[C@@H](O)[C@@H](C)[C@H](OC(C)=O)[C@@H]1C)C4=O [Compound 142b] | 0.125 | very low MICs whether in the absence or in the presence of serum | 2.14 ± 0.08 Log CFU/g of bone | 4.79 ± 1.40 Log CFU/g of bone | – | release significant amounts of the parent rifabutin once bound to bone powder, regardless of the presence of serum | 0.24 ± 0.04 | 0.22 ± 0.06 | 0.37 ± 0.08 | 0.0625 | >128 | 0.5 | 0.0625 | 0.008 | – | – |
